# In paper PMC10791743, “Selective CK1α degraders exert antiproliferative activity against a broad range of human cancer cell lines” (Nature Communications, 2024):
# “Also recorded” adds a separate entry of the source. Read-outs that look alike come from different tables or passages of the source.
# Experiments:
# CK1α G40N = biological target: T1, CK1α G40N (Homo sapiens, UniProt P48729, G40N); test: Immunoblot of transduced MOLM-13 cells (FLAG-CK1α WT / G40N); type: cell-based; conditions: 1 μM, 4 h
# T1 construct: host or cells: MOLM-13, lentiviral transduction, puromycin selected
# T1 sequence (Q96SW2 whole entry partner): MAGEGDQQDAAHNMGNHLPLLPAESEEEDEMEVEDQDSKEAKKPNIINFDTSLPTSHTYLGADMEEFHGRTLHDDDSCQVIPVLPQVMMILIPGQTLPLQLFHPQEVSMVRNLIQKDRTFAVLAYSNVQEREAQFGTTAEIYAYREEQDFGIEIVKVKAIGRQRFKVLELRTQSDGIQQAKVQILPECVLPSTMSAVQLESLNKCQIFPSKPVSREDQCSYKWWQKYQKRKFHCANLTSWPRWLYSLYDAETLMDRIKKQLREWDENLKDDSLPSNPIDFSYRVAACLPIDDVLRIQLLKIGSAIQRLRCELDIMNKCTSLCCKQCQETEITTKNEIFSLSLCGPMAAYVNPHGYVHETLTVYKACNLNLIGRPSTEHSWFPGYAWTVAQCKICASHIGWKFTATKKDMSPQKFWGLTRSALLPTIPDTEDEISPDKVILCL
# T1 sequence (Q16531 whole entry partner): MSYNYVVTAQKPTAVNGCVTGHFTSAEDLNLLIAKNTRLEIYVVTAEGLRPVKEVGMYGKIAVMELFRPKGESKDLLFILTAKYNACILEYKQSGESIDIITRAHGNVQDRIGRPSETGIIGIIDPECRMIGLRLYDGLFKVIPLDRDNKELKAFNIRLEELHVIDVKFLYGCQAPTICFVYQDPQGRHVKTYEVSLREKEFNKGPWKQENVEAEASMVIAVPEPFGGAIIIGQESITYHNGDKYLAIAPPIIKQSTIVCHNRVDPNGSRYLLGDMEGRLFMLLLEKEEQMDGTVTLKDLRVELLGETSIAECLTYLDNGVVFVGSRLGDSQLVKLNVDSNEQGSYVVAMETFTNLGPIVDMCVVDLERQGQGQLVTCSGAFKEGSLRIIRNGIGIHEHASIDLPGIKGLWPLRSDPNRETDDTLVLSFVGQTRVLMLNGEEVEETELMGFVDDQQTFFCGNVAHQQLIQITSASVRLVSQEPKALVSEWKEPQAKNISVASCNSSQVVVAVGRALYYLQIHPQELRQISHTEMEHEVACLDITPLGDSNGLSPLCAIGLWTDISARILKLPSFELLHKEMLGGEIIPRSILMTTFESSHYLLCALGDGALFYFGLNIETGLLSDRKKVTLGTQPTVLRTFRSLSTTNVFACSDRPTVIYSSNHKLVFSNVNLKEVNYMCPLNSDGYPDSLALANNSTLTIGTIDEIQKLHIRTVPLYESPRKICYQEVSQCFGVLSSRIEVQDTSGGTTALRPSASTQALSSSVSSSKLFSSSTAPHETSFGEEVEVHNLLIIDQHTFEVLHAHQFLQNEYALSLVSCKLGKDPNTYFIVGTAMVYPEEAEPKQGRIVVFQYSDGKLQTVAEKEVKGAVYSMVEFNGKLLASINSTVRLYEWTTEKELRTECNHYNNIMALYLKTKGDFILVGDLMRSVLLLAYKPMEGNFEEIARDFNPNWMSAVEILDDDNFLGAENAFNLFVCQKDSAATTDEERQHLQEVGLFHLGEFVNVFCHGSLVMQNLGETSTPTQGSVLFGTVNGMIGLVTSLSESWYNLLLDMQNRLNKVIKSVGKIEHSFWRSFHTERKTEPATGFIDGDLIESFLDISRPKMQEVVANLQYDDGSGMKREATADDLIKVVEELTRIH
# T1 sequence (P48729 whole entry G40N): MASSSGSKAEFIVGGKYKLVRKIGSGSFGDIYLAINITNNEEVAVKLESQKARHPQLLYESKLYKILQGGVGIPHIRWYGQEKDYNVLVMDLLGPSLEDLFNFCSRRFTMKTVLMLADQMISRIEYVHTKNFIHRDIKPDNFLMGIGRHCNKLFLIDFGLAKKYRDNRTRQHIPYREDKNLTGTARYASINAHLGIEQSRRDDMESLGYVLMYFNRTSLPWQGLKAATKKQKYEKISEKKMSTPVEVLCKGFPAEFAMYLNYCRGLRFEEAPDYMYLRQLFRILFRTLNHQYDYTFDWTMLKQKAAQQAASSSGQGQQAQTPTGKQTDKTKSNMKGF
# Procedure: To evaluate the contribution of the CK1α degradation in SJ3149-mediated cytotoxicity, we utilized the degradation-resistant mutant CK1α G40N[41]. MOLM-13 cells were transduced with lentivirus to overexpress FLAG-tagged wild type CK1α or the G40N mutant, which removes the essential glycine in the CK1α degron G-loop.
# Frozen pellets of ~1 million cells were lysed in 150 µl of SDS lysis buffer (60 mM Tris/HCl pH 7, 10% glycerol, 2% SDS, 5% beta-mercaptoethanol, 0.02% bromophenol blue, 0.5% protease and phosphatase inhibitor cocktail (Sigma Aldrich)). When cells were resuspended, samples were heated for 3 min at 99 °C then put on ice. Samples were then fragmented by sonication for 10 0.5-s pulses (550 Sonic Dismembrator, Fisher Scientific) and heated again at 99 °C for 2 min. 15 μl of each sample was added to the wells of a 4–20% polyacrylamide gel (Bio-Rad). A mixture of 2 μl of Precision Plus Protein Unstained Standards and 2 μl of Precision Plus Protein All Blue Standards (Bio-Rad) was used for the size marker. After electrophoresis, gels were transferred to nitrocellulose membrane using the Bio-Rad Trans-Blot Turbo system on the mixed molecular weight setting. […] Blots were imaged with the Li-Cor Odyssey CLx and analyzed using Image Studio Version 5.2. […]
# [1] = system: 115 human cancer cell lines; test: Oncolines panel cell viability assay (ATPlite, 72 h); type: cell-based; conditions: for IC50: Homo sapiens
# Description: To evaluate the compound’s effect and potential therapeutic application across a diverse range of human cancers, we profiled SJ3149 in Oncolines® panel consisting of 115 human cancer cell lines, of which 86 were solid tumor and 29 hematologic cell lines, including MOLM-13. Effect on cell viability was monitored using ATPLite™ (Perkin Elmer), which measures intracellular ATP content as an indirect readout of cell number, like CellTiter Glo.
# Cell lines were purchased from the American Type Culture Collection (ATCC) (Manassas, VA, USA) or the German Collection of Microorganisms and Cell Cultures (DSMZ) (Braunschweig, Germany). All experiments were carried out within ten passages of the original vials. Authenticity of the cell lines was confirmed by short tandem repeat analysis at the respective provider.
# Cell viability assays were performed as previously described. In brief, cells were seeded in a 384-well plate at an optimized density. The starting cell number was determined after 24 h incubation by adding ATPlite 1Step (Perkin Elmer, Groningen, the Netherlands) to each well and recording luminescence on an Envision multimode reader (Perkin Elmer, Waltham, MA). After the addition of a duplicate 9-point dilution series of SJ3149, cells were incubated for another 72 h, followed by cell counting using ATPlite 1Step. The dilution series ranged from 3.2 to 31,600 nM or was diluted 100-fold for the most sensitive cell lines to ideally capture the complete dose–response curve. Percentage viability was determined at each compound concentration by relating the observed signal to a vehicle-treated control, that is, medium containing 0.4% (v/v) DMSO. Compound IC50 values were calculated by fitting a 4-parameter logistic curve to the percentage viability values using IDBS XLfit5 (IDBS, Guildford, UK). The IC50 was limited to the maximum tested compound concentration when the IC50 exceeded the maximum tested concentration.
compound,measurement,setting,value
O=C1CCC(N2Cc3cc(Nc4noc5ccccc45)ccc3C2=O)C(=O)N1 (stereo not shown) [SJ3149],Degradation of G40N mutant CK1α protein,CK1α G40N,resistance of the G40N mutant protein to SJ3149 mediated degradation
same,Inhibition of viability in Oncolines panel cell lines,"[1]; ATPlite, 72 h",potently inhibited the viability of AML cell lines; also recorded: potently inhibited the viability of multiple cell lines derived from solid tumors; also recorded: low nanomolar or even sub-nanomolar potency
same,IC50,"[1]; 769-P, cell line 769-P, Renal cell carcinoma, TP53 Wild-type, read-out: IC50",101 nM
same,IC50,"[1]; A204, cell line A-204, Embryonal rhabdomyosarcoma, TP53 Wild-type, read-out: IC50",16 nM
same,IC50,"[1]; A498, cell line A-498, Renal cell carcinoma, TP53 Wild-type, read-out: IC50",5660 nM
same,IC50,"[1]; A549, cell line A-549, Lung adenocarcinoma, TP53 Wild-type, read-out: IC50",38 nM
same,IC50,"[1]; A-375, cell line A375, Amelanotic melanoma, TP53 Wild-type, read-out: IC50",33 nM
same,IC50,"[1]; ACHN, cell line ACHN, Papillary renal cell carcinoma, TP53 Wild-type, read-out: IC50",187 nM
same,IC50,"[1]; AU565, cell line AU-565, Breast adenocarcinoma, TP53 Mutant, read-out: IC50",19200 nM
same,IC50,"[1]; B-cell, HT, Diffuse large B-cell lymphoma, read-out: IC50",> 31600 nM
same,IC50,"[1]; B-cell, RL, Diffuse large B-cell lymphoma, TP53 Mutant, read-out: IC50",27200 nM
same,IC50,"[1]; B-cell, cell line DB, Diffuse large B-cell lymphoma, TP53 Mutant, read-out: IC50",> 31600 nM
same,IC50,"[1]; BT-20, cell line BT-20, Invasive ductal carcinoma, TP53 Mutant, read-out: IC50",30 nM
same,IC50,"[1]; BT-549, cell line BT-549, Invasive ductal carcinoma, TP53 Mutant, read-out: IC50",12 nM
same,IC50,"[1]; CCRF-CEM, cell line CCRF-CEM, Childhood T acute lymphoblastic leukemia, TP53 Mutant, read-out: IC50",24100 nM
same,IC50,"[1]; CCRF-HSB-2, CCRF-HSB-2 cells, T-ALL, read-out: IC50",16 nM
same,IC50,"[1]; CCRF-HSB-2, cell line CCRF-HSB-2, Childhood T acute lymphoblastic leukemia, TP53 Wild-type, read-out: IC50",16 nM
same,IC50,"[1]; CTV-1, cell line CTV-1, Adult T acute lymphoblastic leukemia, TP53 Wild-type, read-out: IC50",212 nM
same,IC50,"[1]; DU-4475, cell line DU4475, Breast carcinoma, TP53 Wild-type, read-out: IC50",16 nM
same,IC50,"[1]; HuTu80, HuTu 80, Duodenal adenocarcinoma, read-out: IC50",4.6 nM
same,IC50,"[1]; J82, Bladder carcinoma, read-out: IC50",> 31600 nM
same,IC50,"[1]; JAR, Gestational choriocarcinoma, read-out: IC50",69 nM
same,IC50,"[1]; JM-1, B acute lymphoblastic leukemia, read-out: IC50",39 nM
same,IC50,"[1]; Jurkat E6.1, Jurkat E6.1, Childhood T acute lymphoblastic leukemia, read-out: IC50",21200 nM
same,IC50,"[1]; KATO III, Signet ring cell gastric adenocarcinoma, read-out: IC50",31400 nM
same,IC50,"[1]; KG-1, Adult acute myeloid leukemia, read-out: IC50",3480 nM
same,IC50,"[1]; KLE, Endometrial adenocarcinoma, read-out: IC50",28 nM
same,IC50,"[1]; KU812, KU812, Chronic myelogenous leukemia, read-out: IC50",0.75 nM
same,IC50,"[1]; LNCaP, LNCaP FGC, Prostate carcinoma, read-out: IC50",91 nM
same,IC50,"[1]; LS174T, LS 174T, Colon adenocarcinoma, read-out: IC50",16 nM
same,IC50,"[1]; LoVo, Colon adenocarcinoma, read-out: IC50",0.28 nM
same,IC50,"[1]; MCF7, MCF7, Invasive ductal carcinoma, read-out: IC50",18 nM
same,IC50,"[1]; MOLM-13, MOLM-13, Adult acute myeloid leukemia, read-out: IC50",4.2 nM
same,IC50,"[1]; MOLM-13, MOLM-13 cells, AML, read-out: IC50",4.2 nM
same,IC50,"[1]; MOLT-4, MOLT-4, Adult T acute lymphoblastic leukemia, read-out: IC50",35 nM
same,IC50,"[1]; NB4, Acute promyelocytic leukemia with PML-RARA, read-out: IC50",> 31600 nM
same,IC50,"[1]; NCCIT, Testicular embryonal carcinoma, read-out: IC50",4.2 nM
same,IC50,"[1]; NOMO-1, NOMO-1, Adult acute monocytic leukemia, read-out: IC50",53 nM
same,IC50,"[1]; PA-1, Ovarian mixed germ cell tumor, TP53 Wild-type, read-out: IC50",2.8 nM
same,IC50,"[1]; PC-3, Prostate carcinoma, TP53 Mutant, read-out: IC50",> 31600 nM
same,IC50,"[1]; RD, Embryonal rhabdomyosarcoma, TP53 Mutant, read-out: IC50",104 nM
same,IC50,"[1]; RKO, Colon carcinoma, TP53 Wild-type, read-out: IC50",26800 nM
same,IC50,"[1]; RL95-2, RL95-2, Endometrial adenosquamous carcinoma, TP53 Mutant, read-out: IC50",58 nM
same,IC50,"[1]; RPMI 8402, RPMI-8402, Childhood T acute lymphoblastic leukemia, TP53 Wild-type, read-out: IC50",24200 nM
same,IC50,"[1]; RS4-11, RS4-11, Adult B acute lymphoblastic leukemia, TP53 Wild-type, read-out: IC50",2.1 nM
same,IC50,"[1]; RT4, Bladder carcinoma, TP53 Wild-type, read-out: IC50",1240 nM
same,IC50,"[1]; SEM, Childhood B acute lymphoblastic leukemia, TP53 Mutant, read-out: IC50",134 nM
same,IC50,"[1]; SET-2, SET-2, Adult acute megakaryoblastic leukemia, TP53 Mutant, read-out: IC50",32 nM
same,IC50,"[1]; SJCRH30, Alveolar rhabdomyosarcoma, TP53 Mutant, read-out: IC50",> 31600 nM
same,IC50,"[1]; SK-N-FI, Neuroblastoma, TP53 Mutant, read-out: IC50",36 nM
same,IC50,"[1]; SR, Anaplastic large cell lymphoma, TP53 Mutant, read-out: IC50",58 nM
same,IC50,"[1]; SR, SR cells, ALCL, read-out: IC50",58 nM
same,IC50,"[1]; SU-DHL-1, SU-DHL-1, Anaplastic large cell lymphoma, TP53 Mutant, read-out: IC50",12900 nM
same,IC50,"[1]; SU-DHL-6, SU-DHL-6, Diffuse large B-cell lymphoma, TP53 Mutant, read-out: IC50",79 nM
same,IC50,"[1]; SW48, SW48, Colon adenocarcinoma, TP53 Wild-type, read-out: IC50",19 nM
same,IC50,"[1]; SW900, SW900, Squamous cell lung carcinoma, TP53 Mutant, read-out: IC50",419 nM
same,IC50,"[1]; SW982, SW982, Biphasic synovial sarcoma, TP53 Wild-type, read-out: IC50",11 nM
same,IC50,"[1]; T24, Bladder carcinoma, TP53 Mutant, read-out: IC50",> 31600 nM
same,IC50,"[1]; cell line 5637, Bladder carcinoma, TP53 Mutant, read-out: IC50",27800 nM
same,IC50,"[1]; cell line A388, Squamous cell carcinoma, TP53 Mutant, read-out: IC50",> 31600 nM
same,IC50,"[1]; cell line AP-1060, Acute promyelocytic leukemia with PML-RARA, TP53 Unknown, read-out: IC50",1.3 nM
same,IC50,"[1]; cell line ES-2, Ovarian clear cell adenocarcinoma, TP53 Mutant, read-out: IC50",> 31600 nM
same,IC50,"[1]; cell line TT (Hereditary thyroid gland medullary carcinoma), TP53 Wild-type, read-out: IC50",2.2 nM
same,IC50,"[1]; multiple cell lines from diverse tumor tissue origins, read-out: IC50 in insensitive cell lines",> 31600 nM
